Experimental data: patent US20080318803A1, “Biomarkers for Monitoring Impdh Pathway Inhibition” (VERTEX PHARMACEUTICALS, priority 2004, published 2008)
Read-outs that look alike come from different tables or passages of the source.

Columns and labels:
PBMCs PHA-T cell = assay: PBMC proliferation assay (PHA-stimulated T cells); type: cell-based, human; conditions: for IC50: Homo sapiens, PBMC
Source text: Monitoring gene expression patterns offers an alternative approach for optimizing the therapeutic window as compared with the traditional method of measuring drug concentrations in blood and correlating either the AUC or Cmax levels with a clinical response. Towards that end, the inventors have comprehensively evaluated several genes affected by treatment with two distinct IMPDH inhibitors in vitro, as potential readouts for assessing their biological activity. The genes that are listed in Tables I through VIII are particularly useful in the present invention. These genes were identified using the specific methods as follows: Most cell culture reagents, unless specified otherwise, were obtained from Gibco-BRL or JRH Biologicals. Complete RPMI was prepared by adding up to a final of 10% heat-inactivated fetal bovine serum (FBS), 55 μM β mercaptoethanol, 50 units/mL penicillin with 50 μg/mL streptomycin, 300 μg/ml L-glutamine and 10 mM HEPES pH 7.5 to RPMI1640. Stock solutions of Phyto-hemagglutinin (PHA-P, Difco) was prepared in FBS-free RPMI and stored at −20° C. VX-944, and MPA (Sigma-Aldrich or Calbiochem), were dissolved in DMSO at a concentration of 20 mM and stored at −20° C.
Peripheral blood mononuclear cells (PBMCs) and T cells were isolated as follows: Human venous blood was drawn from healthy volunteers using heparin as an anti-coagulant. PBMCs were isolated from blood by centrifugation over Ficoll-paque gradient or CPT tubes (Becton-Dickinson, Calif.), using standard conditions. PBMCs were harvested, washed and resuspended in complete RPMI, counted and diluted to 1×10^6 cells/ml.
In order to monitor PBMC proliferation assay, human PBMC derived T cells (5×10^4 cells/well), were added to 96-well plates. PHA was added up to a final concentration of 10-20 μg/mL per well for stimulating T cells. The mitogen SPAS was used at a final concentration of 2 mg/mL. DMSO was maintained at a final concentration of 0.1%.

HL-60 cells = assay: Affymetrix array transcript profiling in HL-60 cells, 14 h (early) and 30 h (late); type: cell-based, human
Description: The above agents were tested in HL-60 cells at a concentration of 500 nM for VX-944 and 1000 nM for MPA or with 0.1% DMSO as the vehicle control. The cells were harvested at 14 or 30 hours post addition of compound or vehicle. Briefly, the culture medium was removed at the appropriate time-points and the cells washed with PBS. The cells were then harvested, and pelleted by-gentle centrifugation. The supernatant was discarded and the pellets snap-frozen on an ethanol/dry-ice slurry. RNA was isolated from cells by using a RNEasy kit from Qiagen. RNAs were quality controlled using the Agilent 2100 Bioanalyzer to determine the presence of RNAs.
Data from the arrays corresponding to VX-944 and MPA at the two time-points—14 hours (Early) and 30 hours (Late) were analyzed using Spotfire™, microarray data analysis software. Some of the data analysis parameters used are outlined below:
a) All the arrays were normalized by using trimmed means, with a 5% exclusion limit
b) Only genes present in at least 5 of the 6 chips used for the analyses were included in the genesets
c) Only statistically significant genes (ANOVA, p<0.05) were included in the final analyses to generate gene lists.
At the late (30 h) time-point, 335 genes were identified as overlapping between the VX-944 and MPA datasets. […] With MPA 66 genes are in common between the two time-points. As to a comparison between the two data sets, of the 102 genes modulated by VX-944 and the 66 genes modulated by MPA, 43 genes […]. To add additional value to the gene lists and provide additional information to the investigator, the genes underlying each of these expression patterns was queried against publicly available databases. These databases included Locus Link, Gene Cards, KEGG, GO annotations, OMIM, PubMed. The information gathered from such an analysis is organized below in data tables.

[1] = tested on: genes responsive to IMPDH inhibition; assay: Gene chip analysis of genes responsive to IMPDH inhibition (18 gene chips, 8793 genes); type: cell-based; conditions: for No. genes modulated: of 3421 genes common to all 18 gene chips
Source text: The present invention is directed to methods and compositions for using biomarkers that are responsive to changes in IMPDH activity levels.

PBMC cells = assay: Gene expression changes in resting and PHA-stimulated (proliferating) PBMCs treated with VX-944; type: cell-based, human; conditions: proliferating lymphocytes; out of 67 genes
both IMPDH isozymes = conditions: cited from earlier work
[2] = tested on: human peripheral lymphocytes; conditions: cited from earlier work
[3] = read-out: PBMCs PHA-T cell IC50
[4] = read-out: PHA-T cell IC50 in the presence of guanosine
[5] = common to early (14 h) and late (30 h)
[6] = treated vs. DMSO, early (14 h), VX-944 500 nM, MPA 1000 nM

Structure (SMILES)	Ratio of PHA-T cell IC50 in the presence and absence of guanosine (PBMCs PHA-T cell)	IC50 (PBMCs PHA-T cell; [3]) [nM]	IC50 (PBMCs PHA-T cell; [4]) [nM]	Number of Genes Downregulated (HL-60 cells; [5])	Number of Genes Total (HL-60 cells; [5])	Number of Genes Upregulated (HL-60 cells; [5])	Number of Genes Downregulated (HL-60 cells; treated vs. DMSO, early (14 h))	Number of Genes Total (HL-60 cells; treated vs. DMSO, early (14 h))	Number of Genes Upregulated (HL-60 cells; [6])	Number of Genes Downregulated (HL-60 cells; treated vs. DMSO, late (30 h))	Number of Genes Total (HL-60 cells; treated vs. DMSO, late (30 h))	Number of Genes Upregulated (HL-60 cells; treated vs. DMSO, late (30 h))	No. genes modulated: Decreased [1]	No. genes modulated: Increased [1]	No. genes modulated [1]	further results
COc1c(C)c2c(c(O)c1C/C=C(\C)CCC(=O)O)C(=O)OC2 [MPA, Mycophenolic acid]	>224	89	> 20000	0	66	66	0	105	105	560	1162	602	36	39	75	FOLD CHANGE (MPA, EARLY) (HL-60 cells; gene ALG6): 1.5; FOLD CHANGE (MPA, EARLY) (HL-60 cells; gene C6orf18): 1.5; FOLD CHANGE (MPA, EARLY) (HL-60 cells; gene C8orf2): 1.5; FOLD CHANGE (MPA, EARLY) (HL-60 cells; gene C21orf4): 1.5; FOLD CHANGE (MPA, EARLY) (HL-60 cells; gene CLECSF5): 1.5; FOLD CHANGE (MPA, EARLY) (HL-60 cells; gene FBXO5): 1.6; FOLD CHANGE (MPA, EARLY) (HL-60 cells; gene FLJ10852 (HIP14L)): 1.5; FOLD CHANGE (MPA, EARLY) (HL-60 cells; gene KLHL2): 1.6; FOLD CHANGE (MPA, EARLY) (HL-60 cells; gene MGC13024): 1.5; FOLD CHANGE (MPA, EARLY) (HL-60 cells; gene MLC-B (MRLC2)): 1.8; FOLD CHANGE (MPA, EARLY) (HL-60 cells; gene RAGD): 1.5; FOLD CHANGE (MPA, EARLY) (HL-60 cells; gene RPAC2 (POLR1D)): 1.5; FOLD CHANGE (MPA, EARLY) (HL-60 cells; gene SNX10): 1.5; FOLD CHANGE (MPA, EARLY) (HL-60 cells; gene TMEM8): 1.7; FOLD CHANGE (MPA, EARLY) (HL-60 cells; gene TOPK): 1.5
COc1cc(NC(=O)Nc2cccc(CNC(=O)O[C@H]3CCOC3)c2)ccc1-c1cnco1 [VX-497]	62	105	6500	–	–	–	–	–	–	–	–	–	–	–	–	–
CC[C@H](CC#N)OC(=O)N[C@@H](C)c1cccc(NC(=O)Nc2ccc(-c3cnco3)c(OC)c2)c1 [VX-944]	373	21	7800	0	102	102	119	291	172	0	434	434	60	46	106	potency in cell assays relative to MPA (PBMCs PHA-T cell; VX-944 vs MPA): 3-4 fold; number of genes implicated in cancers that are down-regulated (PBMC cells): 4; Ki (both IMPDH isozymes): 7 to 10 nM; inhibition of lymphocyte proliferation on addition of guanosine ([2]; 50 μM guanosine): alleviated; potency in inhibiting lymphocyte proliferation compared with other IMPDH inhibitors ([2]; stimulated with either T or B-cell mitogens): more potent than VX-497 or MPA; IC50 ([2]; stimulated with either T or B-cell mitogens, read-out: IC50, inhibition of proliferation of human peripheral lymphocytes): 20 to 100 nM
